{"source": "patent US6727076B2", "about": "(priority 1995, dated 2004)", "note": "“Also recorded” adds a separate entry of the source. Peptide text beside a SMILES is read from it."}
{"test_system": "E. coli MG1655", "format": "cell-based"}
{"smiles": "NCC(=O)O", "note": "[glycine]", "suitability as nitrogen source (growth, purple color)": "positive"}
{"smiles": "CC(=O)N[C@@H]1C(O)O[C@H](CO)[C@@H](O)[C@@H]1O", "note": "(stereo partly drawn) [N-acetyl-D-mannosamine]", "suitability as nitrogen source (growth, purple color)": "not suitable"}
{"smiles": "N[C@@H](CCO)C(=O)O", "note": "[L-homoserine]", "suitability as nitrogen source (growth, purple color)": "not suitable"}
{"smiles": "C[C@H](N)C(=O)N[C@@H](Cc1cnc[nH]1)C(=O)O", "note": "[ala-his] (H-Ala-His-OH)", "suitability as nitrogen source (growth, purple color)": "not suitable"}
{"smiles": "O=c1[nH]c(=O)c2[nH]c(=O)[nH]c2[nH]1", "note": "[uric acid]", "suitability as nitrogen source (growth, purple color)": "not suitable"}
{"smiles": "CCN", "note": "[ethylamine]", "suitability as nitrogen source (growth, purple color)": "not suitable"}
{"smiles": "N=C(N)NCCC[C@H](N)C(=O)O", "note": "[L-arginine]", "suitability as nitrogen source (growth, purple color)": "positive"}
{"smiles": "NCCN", "note": "[ethylenediamine]", "suitability as nitrogen source (growth, purple color)": "not suitable"}
{"smiles": "CC[C@H](C)[C@H](N)C(=O)O", "note": "[L-isoleucine]", "suitability as nitrogen source (growth, purple color)": "not suitable"}
{"smiles": "Nc1ncnc2c1ncn2[C@@H]1O[C@H](CO)[C@@H](O)[C@H]1O", "note": "[Adenosine]", "suitability as nitrogen source (growth, purple color)": "not suitable"}
{"smiles": "O=[N+]([O-])[O-].[K+]", "note": "[potassium nitrate]", "suitability as nitrogen source (growth, purple color)": "not suitable"}
{"smiles": "N[C@H]1C(O)O[C@H](CO)[C@@H](O)[C@@H]1O", "note": "(stereo partly drawn) [D(+)-glucosamine]", "suitability as nitrogen source (growth, purple color)": "positive"}
{"smiles": "N[C@H]1C(O)O[C@H](CO)[C@H](O)[C@@H]1O", "note": "(stereo partly drawn) [D(+)-galactosamine]", "suitability as nitrogen source (growth, purple color)": "weak positive"}
{"smiles": "N[C@@H]1C(O)O[C@H](CO)[C@@H](O)[C@@H]1O", "note": "(stereo partly drawn) [D-mannosamine]", "suitability as nitrogen source (growth, purple color)": "weak positive"}
{"smiles": "NCCCCCC(=O)O", "note": "[ε-amino-n-caproic acid]", "suitability as nitrogen source (growth, purple color)": "not suitable"}
{"smiles": "O=NO", "note": "[sodium nitrite]", "suitability as nitrogen source (growth, purple color)": "not suitable"}
{"smiles": "CC(O)C(N)=O", "note": "(stereo not drawn) [lactamide]", "suitability as nitrogen source (growth, purple color)": "not suitable"}
{"smiles": "NCCCC[C@@H](N)C(=O)O", "note": "[D-lysine]", "suitability as nitrogen source (growth, purple color)": "not suitable"}
{"smiles": "CC(C)C[C@H](N)C(=O)O", "note": "[L-leucine]", "suitability as nitrogen source (growth, purple color)": "not suitable"}
{"smiles": "N[C@H](CCC(=O)O)C(=O)O", "note": "[D-glutamic acid]", "suitability as nitrogen source (growth, purple color)": "not suitable"}
{"smiles": "CSCC[C@H](N)C(=O)N[C@@H](C)C(=O)O", "note": "[met-ala] (H-Met-Ala-OH)", "suitability as nitrogen source (growth, purple color)": "not suitable"}
{"smiles": "NC(=O)NCCC[C@H](N)C(=O)O", "note": "[L-citrulline]", "suitability as nitrogen source (growth, purple color)": "not suitable"}
{"smiles": "NCC(=O)N[C@@H](CC(N)=O)C(=O)O", "note": "[gly-asn] (H-Gly-Asn-OH)", "suitability as nitrogen source (growth, purple color)": "positive"}
{"smiles": "O=C(O)CNC(=O)c1ccccc1", "note": "[hippuric acid]", "suitability as nitrogen source (growth, purple color)": "not suitable"}
{"smiles": "N=C(N)NCCCCN", "note": "[agmatine]", "suitability as nitrogen source (growth, purple color)": "not suitable"}
{"smiles": "O=c1[nH]c(=O)c2ncn([C@@H]3O[C@H](CO)[C@@H](O)[C@H]3O)c2[nH]1", "note": "[xanthosine]", "suitability as nitrogen source (growth, purple color)": "not suitable"}
{"smiles": "O=c1[nH]c(=O)c2[nH]cnc2[nH]1", "note": "[xanthine]", "suitability as nitrogen source (growth, purple color)": "not suitable"}
{"smiles": "NCCc1ccc(O)cc1", "note": "[Tyramine]", "suitability as nitrogen source (growth, purple color)": "not suitable"}
{"smiles": "Nc1ncnc2nc[nH]c12", "note": "[adenine]", "suitability as nitrogen source (growth, purple color)": "not suitable"}
{"smiles": "NCCc1c[nH]cn1", "note": "[histamine]", "suitability as nitrogen source (growth, purple color)": "not suitable"}
{"smiles": "CCCCCCC(N)C(=O)O", "note": "(racemic) [DL-α-amino-caprylic acid]", "suitability as nitrogen source (growth, purple color)": "not suitable"}
{"smiles": "CCCCN", "note": "[n-butylamine]", "suitability as nitrogen source (growth, purple color)": "not suitable"}
{"smiles": "CC(C)[C@@H](N)C(=O)O", "note": "[D-valine]", "suitability as nitrogen source (growth, purple color)": "not suitable"}
{"smiles": "NCCCCN", "note": "[putrescine]", "suitability as nitrogen source (growth, purple color)": "not suitable"}
{"smiles": "C[C@H](NC(=O)CN)C(=O)O", "note": "[gly-ala] (H-Gly-Ala-OH)", "suitability as nitrogen source (growth, purple color)": "positive"}
{"smiles": "NCCCC[C@H](N)C(=O)O", "note": "[L-lysine]", "suitability as nitrogen source (growth, purple color)": "not suitable"}
{"smiles": "NCC(=O)N[C@@H](CCC(N)=O)C(=O)O", "note": "[gly-gln] (H-Gly-Gln-OH)", "suitability as nitrogen source (growth, purple color)": "positive"}
{"smiles": "CCCC(N)C(=O)O", "note": "(stereo not drawn) [2-amino-valeric acid]", "suitability as nitrogen source (growth, purple color)": "not suitable"}
{"smiles": "N[C@@H](Cc1ccc(O)cc1)C(=O)O", "note": "[L-tyrosine]", "suitability as nitrogen source (growth, purple color)": "not suitable"}
{"smiles": "O=C1NC(=O)C(=O)C(=O)N1", "note": "[alloxan]", "suitability as nitrogen source (growth, purple color)": "not suitable"}
{"smiles": "NC(N)=O", "note": "[urea]", "suitability as nitrogen source (growth, purple color)": "not suitable"}
{"smiles": "Cc1c[nH]c(=O)[nH]c1=O", "note": "[thymine]", "suitability as nitrogen source (growth, purple color)": "not suitable"}
{"smiles": "NCCc1ccccc1", "note": "[Phenylethyl amine]", "suitability as nitrogen source (growth, purple color)": "not suitable"}
{"smiles": "CC(=O)N[C@H]1C(O)O[C@H](CO)[C@H](O)[C@@H]1O", "note": "(stereo partly drawn) [N-acetyl-D-galactosamine]", "suitability as nitrogen source (growth, purple color)": "not suitable"}
{"smiles": "CCC(N)C(=O)O", "note": "(racemic) [DL-α-amino-n-butyric acid]", "suitability as nitrogen source (growth, purple color)": "not suitable"}
{"smiles": "O=C(O)/C=C/c1c[nH]cn1", "note": "[urocanic acid]", "suitability as nitrogen source (growth, purple color)": "not suitable"}
{"smiles": "CCCCCN", "note": "[n-amylamine]", "suitability as nitrogen source (growth, purple color)": "not suitable"}
{"smiles": "Cl.N", "note": "[NH4Cl, ammonium chloride]", "suitability as nitrogen source (growth, purple color)": "positive"}
{"smiles": "C[C@H](N)C(=O)N[C@H](C(=O)O)[C@@H](C)O", "note": "[ala-thr] (H-Ala-Thr-OH)", "suitability as nitrogen source (growth, purple color)": "positive"}
{"smiles": "C[C@@H](N)c1ccccc1", "note": "[(R)-(+)-α-phenylethylamine]", "suitability as nitrogen source (growth, purple color)": "not suitable"}
{"smiles": "NC(=O)[C@@H](O)[C@@H](O)[C@H](O)[C@@H](O)C=O", "note": "[Glucuronamide]", "suitability as nitrogen source (growth, purple color)": "not suitable"}
{"smiles": "NC(=O)C[C@@H](N)C(=O)O", "note": "[D-asparagine]", "suitability as nitrogen source (growth, purple color)": "not suitable"}
{"smiles": "CSCC[C@H](NC(=O)CN)C(=O)O", "note": "[gly-met]", "suitability as nitrogen source (growth, purple color)": "positive"}
{"smiles": "CC(N)=O", "note": "[acetamide]", "suitability as nitrogen source (growth, purple color)": "not suitable"}
{"smiles": "CC(=O)NCC(=O)O", "note": "[N-acetyl-glycine]", "suitability as nitrogen source (growth, purple color)": "not suitable"}
{"smiles": "NC=O", "note": "[formamide]", "suitability as nitrogen source (growth, purple color)": "not suitable"}
{"smiles": "CC(C)[C@H](N)C(=O)O", "note": "[L-valine]", "suitability as nitrogen source (growth, purple color)": "not suitable"}
{"smiles": "C[C@H](N)C(=O)N[C@@H](CCC(N)=O)C(=O)O", "note": "[ala-gln] (H-Ala-Gln-OH)", "suitability as nitrogen source (growth, purple color)": "positive"}
{"test_system": "E. coli 287 (ATCC #11775)", "format": "cell-based"}
{"smiles": "CCCC(=O)C(=O)O", "note": "[α-ketovaleric acid]", "carbon source utilization result": "negative"}
{"smiles": "CC(=O)O", "note": "[Acetic acid]", "carbon source utilization result": "positive"}
{"smiles": "C=C(CC(=O)O)C(=O)O", "note": "[itaconic acid]", "carbon source utilization result": "negative"}
{"smiles": "C[N+](C)(C)CC(O)CC(=O)[O-]", "note": "(racemic) [D,L-carnitine]", "carbon source utilization result": "negative"}
{"smiles": "OC[C@H]1O[C@@H]2O[C@H]3[C@H](O)[C@@H](O)[C@@H](O[C@H]4[C@H](O)[C@@H](O)[C@@H](O[C@H]5[C@H](O)[C@@H](O)[C@@H](O[C@H]6[C@H](O)[C@@H](O)[C@@H](O[C@H]7[C@H](O)[C@@H](O)[C@@H](O[C@H]1[C@H](O)[C@H]2O)O[C@@H]7CO)O[C@@H]6CO)O[C@@H]5CO)O[C@@H]4CO)O[C@@H]3CO", "note": "[α-cyclodextrin]", "carbon source utilization result": "negative"}
{"smiles": "CC(O)C(C)O", "note": "(stereo not drawn) [2,3-butanediol]", "carbon source utilization result": "positive/negative"}
{"smiles": "O=C(O)CC(=O)O", "note": "[malonic acid]", "carbon source utilization result": "negative"}
{"smiles": "CC(C)C[C@H](N)C(=O)O", "note": "[L-leucine]", "carbon source utilization result": "negative"}
{"smiles": "OC[C@@H](O)[C@@H](O)[C@@H](O)CO", "note": "[Adonitol]", "carbon source utilization result": "negative"}
{"smiles": "NCCCCN", "note": "[putrescine]", "carbon source utilization result": "positive/negative"}
{"smiles": "O=C[C@H](O)[C@@H](O)[C@H](O)[C@H](O)C(=O)O", "note": "[D-glucuronic acid]", "carbon source utilization result": "positive"}
{"smiles": "OC[C@@H](O)[C@H](O)[C@@H](O)CO", "note": "[xylitol]", "carbon source utilization result": "negative"}
{"smiles": "NCCc1ccccc1", "note": "[Phenylethyl amine]", "carbon source utilization result": "positive/negative"}
{"smiles": "CC(=O)N[C@H]1C(O)O[C@H](CO)[C@H](O)[C@@H]1O", "note": "(stereo partly drawn) [N-acetyl-D-galactosamine]", "carbon source utilization result": "positive"}
{"smiles": "C[C@H](N)C(N)=O", "note": "[alaninamide]", "carbon source utilization result": "positive"}
{"smiles": "O=C(O)/C=C/c1c[nH]cn1", "note": "[urocanic acid]", "carbon source utilization result": "negative; also recorded: equivocal; also recorded: positive"}
{"smiles": "O=C(O)[C@H](O)[C@@H](O)[C@H](O)[C@H](O)CO", "note": "[D-gluconic acid]", "carbon source utilization result": "positive"}
{"smiles": "NCC(=O)N[C@@H](CC(=O)O)C(=O)O", "note": "[Glycyl-L-aspartic acid] (H-Gly-Asp-OH)", "carbon source utilization result": "positive"}
{"smiles": "O=C(O)/C=C(/CC(=O)O)C(=O)O", "note": "[cis-aconitic acid]", "carbon source utilization result": "positive/negative"}
{"smiles": "OC[C@H]1O[C@@H](O[C@H]2[C@H](O)[C@@H](O)[C@@H](O)O[C@@H]2CO)[C@H](O)[C@@H](O)[C@H]1O", "note": "[α-D-lactose]", "carbon source utilization result": "positive"}
{"smiles": "O=C(O)CCCO", "note": "[γ-hydroxybutyric acid]", "carbon source utilization result": "negative"}
{"smiles": "CC(O)C(=O)O", "note": "(racemic) [D,L-lactic acid]", "carbon source utilization result": "positive"}
{"smiles": "C[C@H](O)[C@H](O)[C@@H](O)[C@@H](O)C=O", "note": "[L-rhamnose]", "carbon source utilization result": "positive"}
